Measured values as given in paper PMC4249827, “A Novel CMKLR1 Small Molecule Antagonist Suppresses CNS Autoimmune Inflammatory Disease” (PLoS ONE, 2014).
Like-named read-outs stand apart in the source and are kept apart here. Marks after values point to notes of the source that are not given here.

Assays:
CXCR5 = CXCR5 (Homo sapiens, UniProt P32302); assay: Transwell chemotaxis of CXCR5+ NC-37 cells to CXCL13
p53 mutants = system: p53 mutants; set-up: method as in PubChem, 2014a; details: Cell-based (process); ref PubChem, 2014a; cited from earlier work
[1] = system: MPP8 chromodomain/methylated histones; set-up: method as in PubChem, 2014b; details: Purified protein (binding); ref PubChem, 2014b; cited from earlier work
Cytochrome p450 2D6 = details: cited from earlier work
DNA re-replication = system: DNA re-replication; set-up: method as in PubChem, 2014b; details: Cell-based (process); ref PubChem, 2014b; read-out: Agonist activity, EC50 (µM), DNA re-replication; cited from earlier work
huCMKLR1 = molecular target: T1, huCMKLR1 (Homo sapiens, UniProt Q99788); assay: β-arrestin2 (β-ARR2) enzymatic complementation assay, CMKLR1/CHO cells; assay type: cell-based; set-up: host or cells: CHO
T1 sequence (Q99788 1-373): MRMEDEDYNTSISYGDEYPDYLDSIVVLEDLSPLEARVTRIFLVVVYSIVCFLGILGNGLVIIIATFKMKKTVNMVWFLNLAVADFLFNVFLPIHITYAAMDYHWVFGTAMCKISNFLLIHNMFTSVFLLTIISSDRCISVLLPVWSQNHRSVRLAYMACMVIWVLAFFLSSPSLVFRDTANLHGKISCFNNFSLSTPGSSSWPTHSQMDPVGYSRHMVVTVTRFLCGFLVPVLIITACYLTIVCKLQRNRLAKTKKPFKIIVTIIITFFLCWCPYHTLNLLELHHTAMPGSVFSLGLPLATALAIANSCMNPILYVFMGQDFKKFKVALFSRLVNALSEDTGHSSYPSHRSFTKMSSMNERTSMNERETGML
Excerpt: The engagement of a chemoattractant receptor by its cognate ligand stimulates the recruitment of β-arrestin to the carboxyl-terminus of the receptor, an event that results in receptor internalization and termination of G protein-mediated signaling. […] To test this, we used an enzymatic complementation assay (the β-ARR2 assay), whereby the complementary fragments from the β-gal active site are fused to the carboxyl-terminus of CMKLR1 and β-arrestin2. The special association of these molecules leads to enzyme activity, which is detected by a chemiluminescent substrate.

C57BL/6 mice [2] = assay: Recall proliferation and cytokine (ELISA) responses of LN and spleen cells from treated MOG35-55/CFA-immunized mice; details: in vivo treatment over a 10-day period; 72 h restimulation
[3] = system: Nuclear factor of activated T cells (NFAT); set-up: method as in PubChem, 2014a; details: Cell-based; ref PubChem, 2014a; cited from earlier work
[4] = molecular target: 15-Hydroxyprostaglandin dehydrogenase; set-up: method as in PubChem, 2014b; details: Purified enzyme; ref PubChem, 2014b; cited from earlier work
CXCR7 = CXCR7 (Homo sapiens, UniProt P25106); assay: β-arrestin2 (β-ARR2) assay, CXCR7/CHO cells, CXCL12-stimulated; details: 3 µM
Chain of CXCR7 (P25106 whole entry, species assumed): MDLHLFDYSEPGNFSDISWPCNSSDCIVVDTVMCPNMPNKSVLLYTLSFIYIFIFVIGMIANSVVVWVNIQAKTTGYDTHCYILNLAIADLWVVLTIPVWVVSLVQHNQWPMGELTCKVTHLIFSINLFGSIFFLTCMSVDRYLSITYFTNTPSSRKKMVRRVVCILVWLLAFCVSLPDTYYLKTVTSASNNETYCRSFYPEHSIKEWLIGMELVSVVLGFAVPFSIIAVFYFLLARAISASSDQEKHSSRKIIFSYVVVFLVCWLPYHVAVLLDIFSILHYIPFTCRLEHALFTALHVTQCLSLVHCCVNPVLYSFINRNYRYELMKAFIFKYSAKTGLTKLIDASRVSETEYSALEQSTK

GPR1 = GPR1 (Homo sapiens, UniProt P46091); assay: β-arrestin2 (β-ARR2) assay, GPR1/CHO cells, chemerin-stimulated
Chain of GPR1 (P46091 whole entry, species assumed): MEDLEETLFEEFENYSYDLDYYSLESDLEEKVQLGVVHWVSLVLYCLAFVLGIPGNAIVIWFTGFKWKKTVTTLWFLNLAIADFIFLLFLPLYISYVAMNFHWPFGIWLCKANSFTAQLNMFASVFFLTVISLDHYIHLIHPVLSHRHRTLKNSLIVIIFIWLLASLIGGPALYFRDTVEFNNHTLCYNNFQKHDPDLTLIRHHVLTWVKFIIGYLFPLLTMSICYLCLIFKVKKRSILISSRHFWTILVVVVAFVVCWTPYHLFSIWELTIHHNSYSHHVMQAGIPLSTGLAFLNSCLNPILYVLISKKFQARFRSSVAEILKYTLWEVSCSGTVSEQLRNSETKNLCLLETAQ

Cholinesterase = molecular target: Cholinesterase; set-up: method as in Sastry et al., 1988a; ref 19; details: Purified enzyme; ref Sastry et al., 1988a; cited from earlier work
C57BL/6 mice [5] = assay: EAE induced by active immunization with MOG35-55/CFA in C57BL/6 mice; assay type: in vivo, mouse
C57BL/6 mice [6] = assay: Histology and flow cytometry of CNS and spleen leukocytes in EAE mice (active immunization)
[7] = molecular target: Choline acetyltransferase; details: Purified enzyme; ref Sastry et al., 1988a; cited from earlier work
[8] = molecular target: Tyrosyl-DNA phosphodiesterase 1 + camptothecin; set-up: method as in PubChem, 2014a; details: Cell-based (process); ref PubChem, 2014a; cited from earlier work
Thrombopoietin = system: Thrombopoietin; set-up: method as in PubChem, 2014a; details: Cell-based; ref PubChem, 2014a; cited from earlier work
CXCR4 = CXCR4 (Homo sapiens, UniProt P61073); assay: Transwell chemotaxis of CXCR4+ U937 cells to CXCL12
Chain of CXCR4 (P61073 whole entry): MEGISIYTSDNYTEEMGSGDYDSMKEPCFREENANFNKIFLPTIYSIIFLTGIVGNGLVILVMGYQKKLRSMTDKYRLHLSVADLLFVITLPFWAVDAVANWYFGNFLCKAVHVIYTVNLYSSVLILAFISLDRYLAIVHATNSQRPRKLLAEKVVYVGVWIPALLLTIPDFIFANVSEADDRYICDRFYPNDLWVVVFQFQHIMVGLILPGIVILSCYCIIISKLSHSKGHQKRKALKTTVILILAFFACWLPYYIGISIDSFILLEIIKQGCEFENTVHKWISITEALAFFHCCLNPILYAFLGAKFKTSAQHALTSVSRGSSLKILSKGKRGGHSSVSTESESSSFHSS

Cytochrome p450 2C19 = details: cited from earlier work
[9] = molecular target: Bacillus subtilis Sfp phosphopantetheinyl transferase; set-up: method as in PubChem, 2014a; details: Purified enzyme; ref PubChem, 2014a; cited from earlier work

Chain of CXCR5 (P32302 whole entry): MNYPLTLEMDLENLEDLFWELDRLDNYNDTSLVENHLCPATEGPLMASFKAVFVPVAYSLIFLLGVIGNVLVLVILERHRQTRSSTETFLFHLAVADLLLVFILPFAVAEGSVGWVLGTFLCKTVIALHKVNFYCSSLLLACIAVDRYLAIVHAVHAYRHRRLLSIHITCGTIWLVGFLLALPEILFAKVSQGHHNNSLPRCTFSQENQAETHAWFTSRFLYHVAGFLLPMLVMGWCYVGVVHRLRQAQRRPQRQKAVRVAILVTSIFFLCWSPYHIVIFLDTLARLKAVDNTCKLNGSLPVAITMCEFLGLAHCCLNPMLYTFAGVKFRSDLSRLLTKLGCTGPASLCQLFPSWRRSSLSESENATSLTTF

Q: What does the source list for `C[N+](C)(C)CCC(=O)c1cccc2ccccc12.[I-]` [α-NETA, 2-(α-naphthoyl)ethyltrimethylammonium iodide]?
A: IC50 (CXCR5): ≥ 10 µM; inhibition of migration of CXCR5+ NC-37 cells to CXCL13 (CXCR5; 1, 3, and 10 µM): did not inhibit; IC50 (p53 mutants): 13 µM; IC50 [1]: 10 µM; IC50 (Cytochrome p450 2D6): ≥ 10 µM; EC50 (DNA re-replication): 1.8 µM; IC50 (huCMKLR1): 0.375 ± 0.042 µM; IC50 (huCMKLR1; IC50 (µM), β-arrestin, huCMKLR1, mean±SEM, n = 3-14 independent experiments): 0.38 µM; MOG35-55 recall proliferation and IFNγ and IL-17 production of LN and spleen cells (C57BL/6 mice [2]): comparable to vehicle-treated mice; IC50 [3]: 1.3 µM; IC50 [4]: 14 µM; inhibition of CXCL12-triggered β-arrestin2 association with CXCR7 (CXCR7): moderately inhibited; IC50 (GPR1): 3.4 µM; fold less potent against GPR1 compared to activity against CMKLR1 (GPR1; β-arrestin2 assay): 10 fold; IC50 (Cholinesterase): 84 µM; mice that did not develop clinical EAE by day 27 (C57BL/6 mice [5]; 10 mg/kg daily s.c.): ~30%; suppression of clinical signs beyond first appearance of disease in control mice (C57BL/6 mice [5]; 10 mg/kg daily s.c.): completely suppressed clinical signs for an average of nine days; severity of clinical disease (C57BL/6 mice [5]; 10 mg/kg daily s.c., through day 25): significantly reduced; onset of EAE (C57BL/6 mice [5]; doses as low as 3 mg/kg daily s.c., not shown): significantly delayed the onset of EAE; effect on ongoing clinical EAE (C57BL/6 mice [5]; treatment initiated upon onset of clinical signs, data not shown): failed to reverse ongoing clinical EAE; total cells in the spleen (C57BL/6 mice [6]; 16 days p.i., did not reach statistical significance): more total cells in the spleen; total cells in the CNS (C57BL/6 mice [6]; 16 days p.i., p<0.05): fewer total cells in the CNS; total numbers of splenic NK cells (C57BL/6 mice [6]; EAE mice, not shown): did not induce detectable changes; numbers of CNS lesions (C57BL/6 mice [6]; chronic EAE, day 37 p.i., data not shown): no differences in numbers of CNS lesions; leukocyte accumulation within the CNS (T cells, B cells, dendritic cells, macrophages) (C57BL/6 mice [6]; day 16 p.i., no apparent preferential or selective effect on subsets): suppressed leukocyte accumulation; meningeal and parenchymal CNS inflammatory foci (C57BL/6 mice [6]; peak acute EAE, day 16 p.i.): fewer meningeal and parenchymal CNS inflammatory foci; % of NK cells (CD3-NK1.1+) in lymphocyte scatter gate (C57BL/6 mice [6]; spleen, day 16 post-EAE induction, n = 5 mice per group): 0.8 (0.1) ^* %; IC50 [7]: 9 µM; IC50 [8]: 0.58 µM; IC50 (Thrombopoietin): 2.5 µM; IC50 (CXCR4): ≥ 10 µM; inhibition of migration of CXCR4+ cells to CXCL12 (CXCR4; 1, 3, and 10 µM): did not inhibit; IC50 (Cytochrome p450 2C19): ≥ 10 µM; IC50 (µM), Cytochrome p450 2C19 (Cytochrome p450 2C19): Inactive ^j; IC50 [9]: 18 µM
